Seven compounds from patent US8163754B2, “Purine derivatives for use as adenosine A-2A receptor agonists” (Novartis AG, priority 2004, dated 2012) can be followed below.

What is called Ki is the dissociation constant of the complex between target and ligand, obtained from inhibition or displacement. Read a low Ki as tighter binding.

Structures are written as SMILES. Where a name gives a salt, the structure may show the parent alone.

Sequence of adenosine A2A receptor (P29274 whole entry): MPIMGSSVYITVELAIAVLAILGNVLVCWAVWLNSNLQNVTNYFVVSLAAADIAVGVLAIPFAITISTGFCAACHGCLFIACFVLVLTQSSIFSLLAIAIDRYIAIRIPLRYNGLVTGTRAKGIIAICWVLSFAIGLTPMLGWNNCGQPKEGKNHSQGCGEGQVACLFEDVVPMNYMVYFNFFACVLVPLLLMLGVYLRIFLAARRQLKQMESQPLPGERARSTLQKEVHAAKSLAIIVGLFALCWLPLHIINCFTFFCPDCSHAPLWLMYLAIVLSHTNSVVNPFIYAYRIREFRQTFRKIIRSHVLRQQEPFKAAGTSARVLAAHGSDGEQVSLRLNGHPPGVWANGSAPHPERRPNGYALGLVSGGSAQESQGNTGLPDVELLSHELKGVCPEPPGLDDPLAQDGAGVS

In this test the target is adenosine A2A receptor (Homo sapiens, UniProt P29274). The test is described as follows: A2A receptor agonist assay, method of Murphree et al, Molecular Pharmacology 61, 455-462 (2002). As to conditions: method of L. J. Murphree et al. In kind it is binding. From the text:
Compounds of formula I and their pharmaceutically acceptable salts are useful as pharmaceuticals. In particular, they activate the adenosine A2A receptor, i.e. they act as A2A receptor agonists.
For `NC1CCN(c2nc(NCC(c3ccccc3)c3ccccc3)c3ncn(C4CC(NC(=O)C5CCC5)C(O)C4O)c3n2)C1` [Example 33, Cyclobutanecarboxylic acid {(1S,2R,3S,4R)-4-[2-((R)-3-amino-pyrrolidin-1-yl)-6-(2,2-diphenyl-ethylamino-3)-purin-9-yl]-2,3-dihydroxy-cyclopentyl}-amide], the inhibition constant Ki was 52 nM.
Take `CCC(=O)N[C@H]1C[C@@H](n2cnc3c(N)nc(NCCc4ccccc4)nc32)[C@H](O)[C@@H]1O` [Example 2, N-[(1S,2R,3S,4R)-4-(6-Amino-2-phenethylamino-purin-9-yl)-2,3-dihydroxy-cvclcpentyl]-propionamide trifluoroacetate]: the affinity, expressed as Ki, was 18 nM.
To `CCCCC#Cc1nc(NCC(c2ccccc2)c2ccccc2)c2ncn([C@@H]3C[C@H](NC(=O)CC)[C@@H](O)[C@H]3O)c2n1` [Example 6, N-{(1S,2R,3S,4R)-4-[6-(2,2-Diphenyl-ethylamino)-2-hex-1-ynyl-purin-9-yl]-2,3-dihydroxy-cyclopentyl}-propionamide] belongs 8 nM.
Take `CCC(=O)N[C@H]1C[C@@H](n2cnc3c(NCC(c4ccccc4)c4ccccc4)nc(C(=O)NCCNC(=O)NC4CCN(c5ccccn5)CC4)nc32)[C@H](O)[C@@H]1O` [Example 38, 9-((1R,2S,3R,4S)-2,3-Dihydroxy-4-propionylamino-cyclopentyl)-6-(2,2-diphenyl-ethylamino)-9H-purine-2-carboxylic acid {2-[3-(3,4,5,6-tetrahydro-2H-[1,2]bipyridinyl-4-yl)ureido]-ethyl}-amide]: the affinity, expressed as Ki, was 2 nM.
For `CCC(=O)N[C@H]1C[C@@H](n2cnc3c(NCC(c4ccccc4)c4ccccc4)nc(N4CC[C@@H](NC(=O)N[C@@H]5CCNC5)C4)nc32)[C@H](O)[C@@H]1O` [Example 39, N-((1S,2R,3S,4R)-4-{6-(2,2-Diphenyl-ethylamino)-2-[(R)-3-((R)-3-pyrrolidin-3-ylureido)-pyrrolidin-1-yl]-purin-9-yl}-2,3-dihydroxy-cyclopentyl)-propionamide trifluoroacetate], the Ki is 3 nM.
To `CCC(=O)N[C@H]1C[C@@H](n2cnc3c(NCCC(c4ccccc4)c4ccccc4)nc(NCCc4cn(CC)cn4)nc32)[C@H](O)[C@@H]1O` [Example 61, N-((1S,2R,3S,4R)-4-{6-(3,3-diphenyl-propyl-amino)-2-[2-(1-ethyl-1H-imidazol-4-yl)-ethylamino]-purin-9-yl-2,3-dihydroxy-cyclopentyl}-propionamide trifluoroacetate] belongs 9 nM.
To `CCC(=O)N[C@H]1C[C@@H](n2cnc3c(NCC(c4ccccc4)c4ccccc4)nc(C(=O)NCCNC(=O)N[C@H]4CCN(c5ccccn5)C4)nc32)[C@H](O)[C@@H]1O` [Example 47, 9-((1R,2S,3R,4S)-2,3-Dihydroxy-4-propionylamino-cyclopentyl)-6-(2,2-diphenyl-ethylamino)-9H-purine-2-carboxylic acid {2-[3-((S)-1-pyridin-2-yl-pyrrolidin-3-yl)-ureido]-ethyl}-amide trifluoroacetate] belongs 2 nM.
